Measurements taken from patent publication US20070071717A1, “Treatment of B cells with IL-21 and B cell activators induces Granzyme B production” (University of Iowa Research Foundation, priority 2005, published 2007).

Assays:
[1] = tested on: untreated, bystander B-CLL cells; assay: Bystander cell killing assay with autologous B-CLL cells; assay type: cell-based, human; conditions: 24 hours treatment, washed, 2 days co-culture
Description: Bystander cell assay. Cells were harvested from CLL subjects and separated into aliquots. One aliquot was treated with CpG ODN, IL-21 or both, while a second was untreated but labeled with a membrane dye. Both aliquots were washed thoroughly, and mixed together in the indicated ratio. Cells were harvested after two days, and the number of viable cells in each aliquot determined by gating on the stained or unstained cells.
(§1) Flow cytometry. Antibodies to CD5, CD19, CD27 as well as CD107a were purchased from BD Bioscoences (San Diego, Calif.). IL-21 receptor protein expression was detected using a mAB (clone 152512) from R&D Systems (Minneapolis, Minn.). PKH26 staining was used to identify untreated cells in bystander assays. B-CLL cells were resuspended at a density of 1×10^7 cells/ml in diluent C containing 2 μM PKH26 (both from Sigma, Saint Louis, Mo.). […] Flow cytometric analyses were performed on a FACScan (Becton Dickinson Immunocytometry Systems, San Jose, Calif.) and data analyzed using the program FlowJo (version 6.4.1, Tree Star Inc., Stanford, Calif.).
B-CLL cells treated with CpG ODN and IL-21 can kill untreated autologous cells. […] The inventors next evaluated whether B-CLL cells treated with IL-21 and CpG ODN have the potential to kill. […] The survival of the unstained, untreated cells was then evaluated by flow cytometry.

benign B cells = assay: Apoptosis / cell survival assay of benign B cells; assay type: cell-based, human; conditions: 3 days of culture
Description: (§2) Apoptosis and cell survival assay. Cells were harvested at the indicated time points by staining all cells from a given well with mAb for CD19, CD5 and FITC-labeled Annexin V (BD Biosciences, San Diego, Calif.). A predetermined number of calibration beads (CaliBRITE™ Beads, BD Biosciences, San Diego, Calif.) were then added to each sample to allow for normalization of cell counts in different samples at different time points. Flow cytometric apoptosis assays. Cells were stained with Annexin V (BD Biosciences, San Diego, Calif.), or cell-permeable fluorogenic substrates specific for Granzyme B or Caspase 6 for 1 hour at room temperature according to the manufacturer's instructions (Oncolmmunin, Gaithersburg. Md.). A pre-determined number of calibration beads (CaliBRITE™ Beads, BD Biosciences, San Diego, Calif.) was added to each sample to allow for normalization of cell counts at different time points. Propidium iodide at 1 μg/ml was added just prior to flow cytometric analysis. The count of viable cells rather than the count of apoptotic cells was used for the calculation of cell survival because of concerns some non-viable cells may have undergone lysis and not have been available for counting. Absolute cell survival was expressed as percentage of viable cell counts relative to initial plating counts.

B-CLL cells [2] = assay: Flow cytometric apoptosis / cell survival assay (Annexin V, PI) of B-CLL cells; assay type: cell-based, human
Description: Apoptosis and cell survival assay. Cells were harvested at the indicated time points by staining all cells from a given well with mAb for CD19, CD5 and FITC-labeled Annexin V (BD Biosciences, San Diego, Calif.). A predetermined number of calibration beads (CaliBRITE™ Beads, BD Biosciences, San Diego, Calif.) were then added to each sample to allow for normalization of cell counts in different samples at different time points.
as §2, with “Flow” for “Apoptosis and cell survival assay. Cells were harvested at the indicated time points by staining all cells from a given well with mAb for CD19, CD5 and FITC-labeled Annexin V (BD Biosciences, San Diego, Calif.). A predetermined number of calibration beads (CaliBRITE™ Beads, BD Biosciences, San Diego, Calif.) were then added to each sample to allow for normalization of cell counts in different samples at different time points. Flow”

[3] = tested on: benign peripheral blood B cells; assay: Granzyme B flow cytometry and ELISpot with purified benign peripheral B cells; assay type: cell-based, human
Description: as §1, with “Mo.). After 3 minutes, the reaction was stopped by adding an equal volume of FBS (HyClone, Ogden, Utah). Subsequently cells were washed 3 times and finally resuspended in AIM-V medium. For flow cytometric Granzyme and Perforin detection, cells were incubated at 1×10^6/ml for 13 hrs, Brefeldin A (Epicentre Technologies, Madison, Wis.) added to a final concentration of […], and cells cultured for 5 more hours.” for “Mo.).”
Elispot assays for human Granzyme B and Perforin. […] Plates were dried completely, and spots read on an Immunospot Series 1 Analyzer and counted using Immunospot 3 software, both from C.T.L. Cellular Technology Ltd. (Cleveland, Ohio).

B-CLL cells [4] = assay: Intracellular flow cytometry for Granzyme B, Granzyme A and Perforin in B-CLL cells; assay type: cell-based, human; conditions: 18 hours, Brefeldin A for the last hours
Description: Flow cytometry. […] For flow cytometric Granzyme and Perforin detection, cells were incubated at 1×10^6/ml for 13 hrs, Brefeldin A (Epicentre Technologies, Madison, Wis.) added to a final concentration of 1 mg/ml, and cells cultured for 5 more hours. Intracellular staining was performed using a Fix and Perm kit (Caltag Laboratories, Burlingame, Calif.) according to the manufacturer's instructions. Briefly, cells were washed once and resuspended in Fixation Buffer, incubated for 15 minutes at room temperature and washed with PBS. Cells were then resuspended in Permeabilization Buffer and PE- or FITC-labeled antibodies to Granzyme B (clone GB12; Caltag Laboratories), Perforin (clone dG9; BD Pharmingen), Granzyme A (clone CB9; BD Pharmingen) or suitable control antibodies were added. After another 15 minute incubation at room temperature, cells were washed with PBS. Flow cytometric analyses were performed on a FACScan (Becton Dickinson Immunocytometry Systems, San Jose, Calif.) and data analyzed using the program FlowJo (version 6.4.1, Tree Star Inc., Stanford, Calif.).

Purified B cells = assay: RT-PCR for granzyme B and perforin in purified B cells; assay type: cell-based, human; conditions: 18 hours, with or without anti-BCR antibodies
Description: Purified B cells (purity >99.9%) were cultured for 18 hours in the presence or absence of IL-21 and B cell receptor stimulation (anti-BCR antibodies). Subsequently RNA was isolated and real time RT-PCR with specific primers and probes for granzyme B and perforin was performed. In addition to real time RT-PCR, conventional RT-PCR was also performed and PCR products were run on a gel. The expected amplicon sized are 218 bp (base pairs) and 146 bp for granzyme B and perforin respectively.

[5] = tested on: Daudi cells (pre-B cell line); assay: IFN-γ ELISpot with Daudi cells; assay type: cell-based; conditions: 10^5 cells/well, 16 hours
Description: Daudi cells (pre-B cell line) were incubated on IFN-γ-ELISpot plates in the presence of IL-21, CpG ODN, B cell receptor stimulation or various combinations at a cell concentration of 10^5 cells/well. After 16 hours plates were developed and analyzed.

IL-21 receptor = assay: Flow cytometry of IL-21 receptor protein on B-CLL cells; assay type: cell-based, human; conditions: after 4 and 7 days of incubation, ODN 2.5 μg/ml, FACS
Description: Flow cytometry. Antibodies to CD5, CD19, CD27 as well as CD107a were purchased from BD Bioscoences (San Diego, Calif.). IL-21 receptor protein expression was detected using a mAB (clone 152512) from R&D Systems (Minneapolis, Minn.). PKH26 staining was used to identify untreated cells in bystander assays. B-CLL cells were resuspended at a density of 1×10^7 cells/ml in diluent C containing 2 μM PKH26 (both from Sigma, Saint Louis, Mo.). After 3 minutes, the reaction was stopped by adding an equal volume of FBS (HyClone, Ogden, Utah). Subsequently cells were washed 3 times and finally resuspended in AIM-V medium. For flow cytometric Granzyme and Perforin detection, cells were incubated at 1×10^6/ml for 13 hrs, Brefeldin A (Epicentre Technologies, Madison, Wis.) added to a final concentration of […], and cells cultured for 5 more hours. Intracellular staining was performed using a Fix and Perm kit (Caltag Laboratories, Burlingame, Calif.) according to the manufacturer's instructions. Briefly, cells were washed once and resuspended in Fixation Buffer, incubated for 15 minutes at room temperature and washed with PBS. […] Flow cytometric analyses were performed on a FACScan (Becton Dickinson Immunocytometry Systems, San Jose, Calif.) and data analyzed using the program FlowJo (version 6.4.1, Tree Star Inc., Stanford, Calif.).

Substance | killing of untreated autologous bystander B-CLL cells by treated B-CLL cells [1] | apoptosis of benign B cells (benign B cells) | apoptosis of B-CLL cells (B-CLL cells [2]; 4 days, Annexin V and PI) | ED50 to induce apoptosis of B-CLL cells (B-CLL cells [2]; agent alone, 4 days) [µg/mL] | apoptosis of CD5-negative, atypical B-CLL (B-CLL cells [2]; preliminary, unpublished results) | Granzyme B expression by highly purified (99.9%) benign B cells [3] | Granzyme B(+) B-CLL cells, flow cytometry gating on CD19(+) (B-CLL cells [4]) | transcription of the gene for granzyme B in B cells (Purified B cells) | transcription of the gene for perforin in B cells (Purified B cells) | secretion of interferon-γ by Daudi cells [5] | IL-21 receptor protein levels on B-CLL cells (IL-21 receptor)
IL-21: cytokine of 131 residues (SEQ ID NO:1); Human IL-21 purchased from BioSource | No such bystander effect | Neither IL-21 alone nor IL-21 plus CpG ODN induced apoptosis | induced some apoptosis | 0.04 | do not undergo apoptosis | induced expression of Granzyme B | rare Granzyme B(+) B cells | induces transcription | induces transcription | induces the secretion | 
control ODN: phosphorothioate-phosphodiester-modified control oligodeoxynucleotide 2243, 5′-GGGGGAGCATGCTGGGGGGG-3′ (SEQ ID NO:5) (DNA GGGGGAGCATGCTGGGGGGG; DNA, backbone and methylation of C not given here; phosphorothioate-phosphodiester chimeric backbone) |  |  |  |  |  |  |  |  |  |  | no detectable effect
